In patent publication EP4382907A1, “METHOD FOR PREDICTING A PATIENT-SPECIFIC RESPONSE TO THE FLOT CHEMOTHERAPY SCHEME” (Technische Universität Dresden, priority 2022, dated 2024):
“Also recorded” adds a separate entry of the source. Read-outs that look alike come from different tables or passages of the source. Each block holds one molecule with its values, some of them ahead of it.

Test system: Zellen eines ösophago-gastralen Karzinoms oder eines Magenkarzinoms
Assay: Cell viability dose-response of single FLOT components on in vitro cultured patient tumour cells (Presto Blue)
Format: cell-based
Text: Die Konzentration der mindestens einen Komponente der Testzusammensetzung kann auf Basis von empirisch ermittelten Werten festgelegt werden. Zur empirischen Bestimmung von geeigneten Komponentenkonzentrationen für die Testzusammensetzung werden zunächst Zellen eines ösophago-gastralen Karzinoms, insbesondere eines Magenkarzinoms, von mehreren Patienten entnommen und diese Zellen jeweils separat bei physiologischen Bedingungen in vitro kultiviert. Dabei kann die Patientenkultur auf mehrere Vertiefungen einer Zellkulturplatte aufgeteilt werden. Die kultivierten Patientenzellen werden anschließend jeweils mit einer der Komponenten in jeweils vorgegebenen Konzentrationen in Kontakt gebracht und inkubiert. Das heißt, die die Patientenkulturen werden mit den jeweiligen Komponentenkonzentrationen behandelt. Da sich für Leucovorin selbst keine Wirkung auf die Zellen nachweisen lässt, kann Leucovorin als Komponente zur Bestimmung der Komponentenkonzentration ausgenommen werden. Die Behandlung kann in zwei Vorgehensvarianten unterschieden werden. Gemäß einer ersten Variante erfolgt die Behandlung einer Patientenkultur mit den Komponentenkonzentrationen der betreffenden Komponente beginnend mit der niedrigsten Komponentenkonzentration, wobei die Komponentenkonzentration jeweils nach einer vorgegebenen Inkubationszeit schrittweise oder kontinuierlich erhöht wird. Die Zellviabilität wird dabei nach vorgegebenen Inkubationszeiten bestimmt. Gemäß einer zweiten Variante, werden Patientenzellen enthaltene Vertiefungen jeweils mit einer konkreten Konzentration der jeweiligen Komponente behandelt und inkubiert, wobei die Zellviabilitäten nach einer vorgegebenen Inkubationszeit bestimmt werden. Auf diese Weise können mehrere Komponentenkonzentrationen verschiedener Konzentrationen gleichzeitig getestet werden.
Für jede Komponente 5-Fluorouracil, Oxaliplatin und Docetaxel, kann eine patientenspezifische mittlere inhibitorische Konzentration IC50 (IC50F, IC50O, IC50T,) ermittelt werden. Die IC50-Werte geben an, ab welcher Konzentration der Komponenten eine halbmaximale Wachstumshemmung der Patientenzellen erreicht ist. Anschließend wird aus den Werten der ermittelten patientenspezifischen mittleren inhibitorischen Konzentrationen (IC50F, IC50O, IC50T) für jede Komponente (5-Fluorouracil, Oxaliplatin und Docetaxel, (F, O, T)) ein inhibitorischer Konzentrations-Mittelwert (mIC50F, mIC50O, mIC50T) bestimmt. Der inhibitorische Konzentrations-Mittelwert mIC50 ist der Mittelwert aus der Gesamtheit der IC50-Werte einer der Komponenten (F, O, T). […]

Structure (SMILES): O=C1[O][Pt]2([NH][C@@H]3CCCC[C@H]3[NH]2)[O]C1=O [Oxaliplatin]
IC50 (cell cultures of 13 patients, same procedure as for 5-FU, read-out: Oxaliplatin-spezifische mittlere halbmaximale inhibitorische Konzentration mIC50O): 10.7 µM

Structure (SMILES): Nc1nc2c(c(=O)[nH]1)N(C=O)C(CNc1ccc(C(=O)N[C@@H](CCC(=O)O)C(=O)O)cc1)CN2 (stereo partly shown) [Leucovorin]
Effekt auf die Zellviabilität der Patientenkulturen (single-agent tests): keine Wirkung; also recorded: keinen Effekt

IC50 (cell cultures of 13 patients, same procedure as for 5-FU, read-out: Docetaxelspezifische mittlere halbmaximale inhibitorische Konzentration mIC50T): 0.0012 µM
Structure (SMILES): CC(=O)O[C@@]12CO[C@@H]1C[C@H](O)[C@@]1(C)C(=O)[C@H](O)C3=C(C)[C@@H](OC(=O)[C@H](O)[C@@H](NC(=O)OC(C)(C)C)c4ccccc4)C[C@@](O)([C@@H](OC(=O)c4ccccc4)[C@H]21)C3(C)C [Docetaxel]

Structure (SMILES): O=c1[nH]cc(F)c(=O)[nH]1 [5-FU, 5-Fluorouracil]
IC50 (144 h, read-out: 5-FU-spezifische mittlere halbmaximale inhibitorische Konzentration mIC50F): 10.3 µM
